According to US9809587B2, “Pesticidally active heterocyclic derivatives with sulphur containing substituents” (Syngenta Participations AG, priority 2014, dated 2017):

Columns and labels:
Assay type in all cases: in vivo
[1] = tested on: Plutella xylostella (Diamond Back Moth); test: Plutella xylostella (diamond back moth), treated artificial diet; conditions: 120 h, application rate of 200 ppm, L2 larvae on artificial diet, 5 days after infestation, read-out: effect in at least one of the two categories (mortality or growth inhibition)
How it was run: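 Artificial diet treated with aqueous dilutions of DMSO stocks (10′000 ppm stock), dried, then infested with 10-15 L2 larvae per well. Mortality and growth inhibition assessed versus untreated controls 5 days after infestation.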

[2] = tested on: Bemisia tabaci (Cotton White Fly); test: Bemisia tabaci (cotton white fly), sprayed cotton leaf discs; conditions: foliar, 144 h, application rate of 200 ppm, adult white flies on cotton leaf discs, 6 days after incubation
Description: Example B1: Bemisia tabaci (Cotton White Fly)
Cotton leaf discs were placed on agar in 24-well microtiter plates and sprayed with aqueous test solutions prepared from 10′000 ppm DMSO stock solutions. After drying the leaf discs were infested with adult white flies. The samples were checked for mortality 6 days after incubation.

[3] = tested on: Euschistus heros (Neotropical Brown Stink Bug); test: Euschistus heros (neotropical brown stink bug), sprayed soybean leaf; conditions: 120 h, application rate of 200 ppm, N-2 nymphs on soybean leaf, 5 days after infestation
Description: Example B3: Euschistus heros (Neotropical Brown Stink Bug)
Soybean leaf on agar in 24-well microtiter plates were sprayed with aqueous test solutions prepared from 10′000 ppm DMSO stock solutions. After drying the leaf were infested with N-2 nymphs. The samples were assessed for mortality in comparison to untreated samples 5 days after infestation.

[4] = tested on: Spodoptera littoralis (Egyqptian Cotton Leaf Worm); test: Spodoptera littoralis (Egyptian cotton leaf worm), sprayed cotton leaf discs; conditions: foliar, 72 h, application rate of 200 ppm, L1 larvae on cotton leaf discs, 3 days after infestation
How it was run: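 Cotton leaf discs on agar were sprayed with aqueous dilutions made from 10′000 ppm DMSO stocks, then infested after drying with five L1 larvae. Mortality, anti-feedant effect and growth inhibition were scored against untreated discs 3 days after infestation. Control means at least one of these exceeds the untreated sample.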

[5] = tested on: Aedes aegypti (Yellow Fever Mosquito); test: Activity against Aedes aegypti (yellow fever mosquito), dried deposits in tissue culture plates; conditions: application rate of 200 ppm in ethanol, adult females, after 48 h
Description: Example B12: Activity Against Aedes aegypti (Yellow Fever Mosquito)
Test solutions, at an application rate of 200 ppm in ethanol, were applied to 12-well tissue culture plates. Once the deposits were dry, five, two to five days old adult female Aedes aegypti were added to each well, and sustained with a 10% sucrose solution in a cotton wool plug. Assessment of knockdown was made one hour after introduction, and mortality was assessed at 24 and 48 hours after introduction.
The following compounds gave at least 80% control of Aedes aegypti after 48 h: […]

[6] = tested on: Tetranychus urticae (Two-Spotted Spider Mite); test: Tetranychus urticae (two-spotted spider mite), sprayed bean leaf discs; conditions: foliar, 192 h, application rate of 200 ppm, mixed population (mobile stages) on bean leaf discs, 8 days after infestation
Description: Example B9: Tetranychus urticae (Two-Spotted Spider Mite)
Bean leaf discs on agar in 24-well microtiter plates were sprayed with aqueous test solutions prepared from 10′000 ppm DMSO stock solutions. After drying the leaf discs were infested with a mite population of mixed ages. The samples were assessed for mortality on mixed population (mobile stages) 8 days after infestation.

[7] = tested on: Frankliniella occidentalis (Western Flower Thrips); test: Frankliniella occidentalis (western flower thrips), sprayed sunflower leaf discs; conditions: foliar, 168 h, application rate of 200 ppm, mixed ages on sunflower leaf discs, 7 days after infestation
Description: Example B11: Frankliniella occidentalis (Western Flower Thrips)
(§1) Sunflower leaf discs were placed on agar in 24-well microtiter plates and sprayed with aqueous test solutions prepared from 10′000 DMSO stock solutions. After drying the leaf discs were infested with a Frankliniella population of mixed ages. The samples were assessed for mortality 7 days after infestation.

[8] = tested on: Diabrotica balteata (Corn Root Worm); test: Diabrotica balteata (corn root worm), sprayed maize sprouts; conditions: 96 h, application rate of 200 ppm, L2 larvae on maize sprouts, 4 days after infestation
Description: Example B2: Diabrotica balteata (Corn Root Worm)
Maize sprouts, placed on an agar layer in 24-well microtiter plates were treated with aqueous test solutions prepared from 10′000 ppm DMSO stock solutions by spraying. After drying, the plates were infested with L2 larvae (6 to 10 per well). The samples were assessed for mortality and growth inhibition in comparison to untreated samples 4 days after infestation.

[9] = tested on: Thrips tabaci (Onion Thrips); test: Thrips tabaci (onion thrips), sprayed sunflower leaf discs; conditions: foliar, 144 h, application rate of 200 ppm, mixed ages on sunflower leaf discs, 6 days after infestation
Description: Example B10: Thrips tabaci (Onion Thrips)
as §1, with “10′000 ppm” for “10′000”, “thrips” for “Frankliniella”, “6” for “7”

[10] = tested on: Spodoptera littoralis (Egyqptian Cotton Leaf Worm); test: Spodoptera littoralis (Egyptian cotton leaf worm), compound in agar taken up by lettuce roots; conditions: 144 h, test rate of 12.5 ppm, uptake by lettuce roots from agar, 6 days after infestation, read-out: effect in at least one of the three categories (mortality, anti-feedancy, or growth inhibition)
How it was run: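 Compound mixed into agar from a 10′000 ppm DMSO stock and taken up over 7 days by lettuce roots; cut leaves then infested with Spodoptera eggs. Mortality, anti-feedant effect and growth inhibition scored against untreated samples 6 days after infestation.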

[11] = tested on: Myzus persicae (Green Peach Aphid); test: Myzus persicae (green peach aphid), sprayed sunflower leaf discs; conditions: foliar, 144 h, application rate of 200 ppm, mixed ages on sunflower leaf discs, 6 days after infestation
Description: Example B4: Myzus persicae (Green Peach Aphid)
Sunflower leaf discs were placed on agar in a 24-well microtiter plate and sprayed with aqueous test solutions prepared from 10′000 ppm DMSO stock solutions. After drying, the leaf discs were infested with an aphid population of mixed ages. The samples were assessed for mortality 6 days after infestation.

[12] = tested on: Myzus persicae (Green Peach Aphid); test: Myzus persicae (green peach aphid), roots of pea seedlings in test solution; conditions: 144 h, test rate of 24 ppm, roots of infested pea seedlings in test solution, 6 days
Description: Example B5: Myzus persicae (Green Peach Aphid)
Roots of pea seedlings infested with an aphid population of mixed ages were placed directly in the aqueous test solutions prepared from 10′000 DMSO stock solutions. The samples were assessed for mortality 6 days after placing seedlings in test solutions.

CCS(=O)(=O)c1cc(-c2cc(C(F)(F)F)ccn2)cnc1-c1nc2cc(C(F)(F)F)ncc2n1C [Compound P21]
≥ 80%: percent effect (mortality or growth inhibition) at 200 ppm [1] | mortality at 200 ppm [2] | mortality at 200 ppm [3] | percent control (mortality, anti-feedant effect or growth inhibition) at 200 ppm [4] | pest or weed control at 200 ppm [5] | mortality at 200 ppm [6] | mortality at 200 ppm [7] | mortality at 200 ppm [8] | mortality at 200 ppm [9] | percent control (mortality, anti-feedancy or growth inhibition) at 12.5 ppm [10] | mortality at 200 ppm [11]

CCS(=O)(=O)c1cc(-c2ncc(C(F)(F)F)cn2)cnc1-c1nc2cc(C(F)(F)F)ncc2n1C [Compound P25]
≥ 80%: percent effect (mortality or growth inhibition) at 200 ppm [1] | mortality at 200 ppm [2] | mortality at 200 ppm [3] | percent control (mortality, anti-feedant effect or growth inhibition) at 200 ppm [4] | pest or weed control at 200 ppm [5] | mortality at 200 ppm [6] | mortality at 200 ppm [7] | mortality at 200 ppm [8] | mortality at 200 ppm [9] | percent control (mortality, anti-feedancy or growth inhibition) at 12.5 ppm [10] | mortality at 200 ppm [11]

CCS(=O)(=O)c1cc(-c2ncccn2)cnc1-c1nc2cc(C(F)(F)F)ncc2n1C [Compound P27]
≥ 80%: percent effect (mortality or growth inhibition) at 200 ppm [1] | mortality at 200 ppm [2] | mortality at 200 ppm [3] | percent control (mortality, anti-feedant effect or growth inhibition) at 200 ppm [4] | mortality at 200 ppm [6] | mortality at 24 ppm [12] | mortality at 200 ppm [7] | mortality at 200 ppm [8] | percent control (mortality, anti-feedancy or growth inhibition) at 12.5 ppm [10] | mortality at 200 ppm [11]

CCS(=O)(=O)c1cc(-c2ncc(F)cc2F)cnc1-c1nc2cc(C(F)(F)F)ncc2n1C [Compound P35]
≥ 80%: percent effect (mortality or growth inhibition) at 200 ppm [1] | mortality at 200 ppm [2] | percent control (mortality, anti-feedant effect or growth inhibition) at 200 ppm [4] | mortality at 200 ppm [6] | mortality at 24 ppm [12] | mortality at 200 ppm [7] | mortality at 200 ppm [8] | percent control (mortality, anti-feedancy or growth inhibition) at 12.5 ppm [10] | mortality at 200 ppm [11]

CCS(=O)(=O)c1cc(-n2cnc(C(F)(F)F)n2)cnc1-c1nc2cc(C(F)(F)F)ncc2n1C [Compound P110]
≥ 80%: percent effect (mortality or growth inhibition) at 200 ppm [1] | mortality at 200 ppm [3] | percent control (mortality, anti-feedant effect or growth inhibition) at 200 ppm [4] | pest or weed control at 200 ppm [5] | mortality at 200 ppm [6] | mortality at 24 ppm [12] | mortality at 200 ppm [7] | mortality at 200 ppm [8] | mortality at 200 ppm [9] | mortality at 200 ppm [11]
